Results reported in patent publication US20080153872A1, “Bis-(Coumarin) Compounds With Anti-Inflammatory Activity” (priority 2005, published 2008).

Legend:
human PDE3 = target: T1, human PDE3 (Homo sapiens, UniProt Q14432); assay: Human PDE3 assay (platelets); format: biochemical; settings: 10 μM concentration
T1 construct: Isolated human platelets are pre-incubated at 25° C; from tissue; host or cells: human platelets
Procedure: (§1) All compounds were dissolved in dimethyl sulfoxide (DMSO). Final concentration of the DMSO in all tests was 1% (v/v). Inhibition in all tests is considered preferred if it exceeds 50% at 10 μM concentration (or less).
(§2) PDE3 assay. Isolated human platelets are pre-incubated at 25° C. in Tris-HCl buffer containing magnesium ions for 15 minutes. 1.01 μM tritium labeled cyclic adenosine monophosphate (cAMP) is added as substrate, followed by incubation at 25° C. for 20 minutes. Percentage of inhibition is calculated by comparing the adenosine levels in supernatant which is formed from cAMP in treated versus control cells.

human PDE4 = assay: Human PDE4 assay (U937); format: biochemical; settings: 10 μM concentration
Procedure: as §1
as §2, with “PDE4” for “PDE3”, “PDE is implicated in diseases such as chronic obstructive pulmonary disease and neutrophilia. Human monocytic leukemia cell line U937 is” for “Isolated human platelets are”

human 5-LO = target: T2, human 5-LO (Homo sapiens, UniProt P09917); assay: Human 5-Lipoxygenase, 5-LO, assay in peripheral mononuclear blood cells; format: cell-based; settings: 10 μM concentration, LTB4 readout
T2 construct: Human peripheral mononuclear blood cells were isolated using Ficoll density separation; endogenous in cells; host or cells: human peripheral blood mononuclear cells
T2 sequence (P09917 1-674): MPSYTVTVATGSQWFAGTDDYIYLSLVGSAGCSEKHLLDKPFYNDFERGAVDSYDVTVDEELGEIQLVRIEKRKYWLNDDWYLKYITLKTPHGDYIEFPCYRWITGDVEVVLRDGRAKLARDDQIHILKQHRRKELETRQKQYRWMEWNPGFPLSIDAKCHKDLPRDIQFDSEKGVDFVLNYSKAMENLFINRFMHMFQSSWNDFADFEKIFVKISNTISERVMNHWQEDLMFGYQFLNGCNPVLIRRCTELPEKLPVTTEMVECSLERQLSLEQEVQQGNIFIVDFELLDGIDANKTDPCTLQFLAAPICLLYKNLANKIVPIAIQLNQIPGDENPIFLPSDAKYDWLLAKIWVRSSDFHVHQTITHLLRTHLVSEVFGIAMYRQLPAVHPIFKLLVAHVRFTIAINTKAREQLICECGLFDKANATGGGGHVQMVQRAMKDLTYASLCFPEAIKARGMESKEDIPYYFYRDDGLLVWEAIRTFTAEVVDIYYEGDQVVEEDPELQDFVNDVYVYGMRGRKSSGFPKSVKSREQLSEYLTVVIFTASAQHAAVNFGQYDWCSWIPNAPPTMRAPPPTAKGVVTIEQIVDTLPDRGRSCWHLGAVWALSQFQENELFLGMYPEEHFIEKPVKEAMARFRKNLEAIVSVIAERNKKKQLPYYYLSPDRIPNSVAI
Procedure: as §1
Human peripheral mononuclear blood cells were isolated using Ficoll density separation. Cells were incubated in Hanks Balanced Salt Solution (HBSS) with compounds for 15 minutes at 37° C. Substrate (arachidonic acid) was added in 20 μM final concentration and cells were incubated for another 15 minutes. LTB4 as a final product of arachidonic acid metabolism was measured using competitive enzyme immunoassay (See, e.g., Safayhi, H. et al. Planta Medica 2000, 66, 110-113) and percentage of inhibition was calculated from the levels of LTB4 in cell supernatant.

TxA2 receptor = target: T3, TxA2 receptor (Homo sapiens, UniProt P21731); assay: Human thromboxane A2, TxA2, assay (SQ-29548 competition); format: binding; settings: 10 μM concentration; HEK-293
T3 construct: expressed in transfected cells; host or cells: HEK-293
T3 sequence (P21731 1-343): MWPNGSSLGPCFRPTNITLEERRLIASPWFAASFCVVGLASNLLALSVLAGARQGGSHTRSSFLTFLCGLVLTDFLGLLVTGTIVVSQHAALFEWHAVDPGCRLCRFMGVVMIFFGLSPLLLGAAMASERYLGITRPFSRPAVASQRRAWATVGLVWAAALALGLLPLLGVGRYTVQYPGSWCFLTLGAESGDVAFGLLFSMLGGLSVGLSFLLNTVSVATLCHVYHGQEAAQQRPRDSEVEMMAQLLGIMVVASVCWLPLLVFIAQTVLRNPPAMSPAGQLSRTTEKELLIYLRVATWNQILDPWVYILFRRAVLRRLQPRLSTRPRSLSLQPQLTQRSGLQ
Procedure: as §1
TxA2 receptor is expressed in HEK-293 cell line. Compounds and radiolabelled competitor SQ-29548 are incubated for 30 minutes at 25° C. Level of bound SQ-29548 is measured by scintillation counting, and competition is calculated from the total amount of the bound SQ-29548. […] is an unstable lipid mediator involved in blood clotting, and immune processes.

CysLT1 receptor = target: T4, CysLT1 receptor (Homo sapiens, UniProt Q9Y271); assay: Human cysteinyl leukotriene receptor 1 (CysLT1) radioligand binding assay; settings: 10 μM concentration; CHO-K1 cells
T4 construct: expressed in transfected cells; host or cells: CHO-K1
T4 sequence (Q9Y271 1-337): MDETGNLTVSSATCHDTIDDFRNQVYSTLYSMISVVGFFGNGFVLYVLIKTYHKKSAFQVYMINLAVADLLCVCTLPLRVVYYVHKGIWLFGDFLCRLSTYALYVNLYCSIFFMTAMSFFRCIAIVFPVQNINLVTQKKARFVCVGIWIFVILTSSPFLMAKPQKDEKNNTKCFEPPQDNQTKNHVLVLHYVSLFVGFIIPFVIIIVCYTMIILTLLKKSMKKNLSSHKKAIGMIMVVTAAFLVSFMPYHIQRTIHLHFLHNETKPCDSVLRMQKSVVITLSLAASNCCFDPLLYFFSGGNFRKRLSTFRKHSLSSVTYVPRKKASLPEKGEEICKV
Procedure: as §1
CysLT1 receptor is involved in immune diseases such as asthma, and has clinical significance as a point of intervention in asthma therapy. CysLT1 receptor is expressed in CHO-K1 cells (Chinese hamster ovary cells K1 clone). This is a competitive radioligand binding assay where substances compete with [^3H]-labeled Leulcotirene D4 (LTD4). Radioactive substance is measured with scintillation counting. Percentage of inhibition is calculated from the total radioactivity of the sample.

CD1 mice = assay: PMA induced ear oedema in CD1 mice; format: in vivo, mouse; settings: topical, single dose of 250 or 100 μg/15 μL/ear; statistically significant vs positive control
Procedure: Male CD1 mice (Iffa Credo, France) weighing ˜35-40 g were randomly grouped (n=8 in vehicle treated test group, dexamethasone treated control group as well as in groups treated with compounds to be assayed). Test compounds, dexamethasone as well as vehicle (Trans-phase Delivery System, containing benzyl alcohol 10%, acetone 40% and isopropanol 50%) (all from Kemika, Croatia), were administered topically to the internal surface of the left ear thirty minutes prior to administration of phorbol 12-myristate 13-acetate (PMA) (Alexis biochemicals, USA). Test compounds were administered at a single dose of 250 or 100 μg/15 μL/ear and dexamethasone at a single dose of 50 μg/15 μL/ear. Thirty minutes later, 0.01% PMA solution in acetone was applied topically to the same area of each animal in a volume of 12 μL/ear. During the treatment and challenge, animals were anaesthetized by using inhalation anaesthesia. Six hours after the challenge, animals were euthanized by asphyxiation in 100% CO2 atmosphere. For assessing the auricular oedema, 8 mm discs were cut out of left and right auricular pinna and weighed. The degree of oedema was calculated by subtracting the weight of 8 mm disc of the untreated ear from that of the treated contralateral ear.

[1] = test system: Human prostanoid receptor; assay: Human prostanoid receptor assay ([3H]-PGD2 competition); format: binding; settings: 10 μM concentration; CHO-K1
Procedure: as §1
Human prostanoid receptor is expressed in Chinese hamster ovary cell line, clone K1 (CHO-K1). Substances and radioactive competitor (tritium labelled Prostaglandin D2 in 1.7 nM concentration) are incubated with cells in HEPES buffer for 2 hours at 25° C. in the presence of manganese ions. Level of the bound PGD2 is measured by scintillation counting, and competition is calculated from comparing the total amount of the bound PGD2 in treated versus control cells. Prostanoids are involved in many physiological and pathological processes, from inflammation to pain.

IL-5 = assay: Inhibition of IL-5 production by ConA stimulated mouse splenocytes; format: cell-based; settings: 25 μM
Procedure: Spleen cell suspension was obtained from BALB/c mice and lymphocytes separated by gradient density centrifugation on Histopaque 1.083 on 400 g for 30 minutes. They were washed once in medium, counted and their number adjusted as 3×10^5/200 μL/well in 96 flat bottomed culture plate in RPMI supplemented with 10% fetal bovine serum. Cells were stimulated on cytokine production by adding concanavalinA (ConA) at 5 μg/mL final concentration. Unstimulated cells were cultured in medium alone. Stock solution was prepared out of testing compounds as 10 mM in DMSO. Final concentrations made in cell culture medium were tested when they had been added together with ConA. After 72 hours incubation period cell culture supernatants were collected. In each sample IL-4, IL-5, IL-10 and IFNγ were detected and quantified using enzyme linked immunosorbent assay (ELISA) specific for pointed cytokines (R&D Systems).
To calculate results, standard curve was made out of measured OD values for recombinant protein in known concentrations. Cytokine content in unknown samples was calculated out of OD values extrapolated from the standard curve.
Percentage of inhibition is calculated using formula:
% Inhibition=(1−cytokine concentration of sample/cytokine concentration of positive control)×100.

T1 sequence (Q14432 whole entry): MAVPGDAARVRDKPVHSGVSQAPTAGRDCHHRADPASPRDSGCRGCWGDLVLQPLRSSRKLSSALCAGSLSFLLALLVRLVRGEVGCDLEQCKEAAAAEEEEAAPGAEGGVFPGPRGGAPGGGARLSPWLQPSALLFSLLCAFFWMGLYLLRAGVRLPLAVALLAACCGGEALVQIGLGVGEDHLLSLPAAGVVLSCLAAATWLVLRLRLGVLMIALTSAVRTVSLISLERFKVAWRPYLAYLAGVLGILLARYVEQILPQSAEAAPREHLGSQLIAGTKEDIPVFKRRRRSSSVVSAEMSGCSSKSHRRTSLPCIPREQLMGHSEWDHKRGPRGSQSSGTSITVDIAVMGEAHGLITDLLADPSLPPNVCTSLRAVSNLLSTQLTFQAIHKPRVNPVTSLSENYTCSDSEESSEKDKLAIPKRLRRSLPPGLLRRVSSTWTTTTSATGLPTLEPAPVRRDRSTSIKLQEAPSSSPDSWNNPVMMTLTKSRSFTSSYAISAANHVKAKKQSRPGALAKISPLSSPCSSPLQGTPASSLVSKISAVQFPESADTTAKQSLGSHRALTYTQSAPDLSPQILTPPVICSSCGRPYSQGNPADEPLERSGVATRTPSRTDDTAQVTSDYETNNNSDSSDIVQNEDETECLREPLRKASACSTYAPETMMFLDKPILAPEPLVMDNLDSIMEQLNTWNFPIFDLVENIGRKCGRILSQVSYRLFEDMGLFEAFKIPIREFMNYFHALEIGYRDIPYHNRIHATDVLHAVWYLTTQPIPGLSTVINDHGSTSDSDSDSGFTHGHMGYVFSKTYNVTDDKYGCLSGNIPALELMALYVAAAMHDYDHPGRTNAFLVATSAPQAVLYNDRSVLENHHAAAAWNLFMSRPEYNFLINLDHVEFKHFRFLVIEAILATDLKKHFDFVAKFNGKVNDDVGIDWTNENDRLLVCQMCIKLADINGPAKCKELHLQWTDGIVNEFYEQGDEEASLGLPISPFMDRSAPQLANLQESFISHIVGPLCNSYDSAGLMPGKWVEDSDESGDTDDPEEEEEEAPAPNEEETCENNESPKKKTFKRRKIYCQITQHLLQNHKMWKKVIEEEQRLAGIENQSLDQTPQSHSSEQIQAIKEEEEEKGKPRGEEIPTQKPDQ

| SMILES | inhibition of human PDE3 activity (human PDE3) | inhibition of human PDE4 activity (human PDE4) | inhibition of human 5-LO (human 5-LO) | TxA2 receptor, competition with SQ-29548 (TxA2 receptor) | CysLT1 receptor, competition with [3H]-LTD4 (CysLT1 receptor) | suppression of ear oedema (CD1 mice) | human prostanoid receptor, competition with tritium labelled PGD2 [1] | inhibition of IL-5 production (IL-5) |
| --- | --- | --- | --- | --- | --- | --- | --- | --- |
| CCc1cccc2c(O)c(C(C(C)=O)c3c(O)c4cccc(CC)c4oc3=O)c(=O)oc12 [Example 17] | significantly inhibited | significantly inhibited | significantly relevant activity | significantly relevant activity |  |  |  |  |
| O=c1oc2ccccc2c(O)c1C(c1ccc2c(c1)OCO2)c1c(O)c2ccccc2oc1=O [Example 349] |  |  | significantly relevant activity | significantly relevant activity | significantly relevant activity | considered active |  |  |
| O=c1oc2ccccc2c(O)c1C(c1cnc2ccccc2c1)c1c(O)c2ccccc2oc1=O [Example 351] | significantly inhibited | significantly inhibited | significantly relevant activity |  | significantly relevant activity | considered active | significantly relevant activity |  |
| CC(C)c1cccc2c(O)c(C(c3c(O)c4cccc(C(C)C)c4oc3=O)C(C)O)c(=O)oc12 (stereo not shown) [Example 364] |  |  |  |  |  | considered active |  | significantly inhibited |
